Test results taken from US20130023553A1, “PEGYLATED OPIOIDS WITH LOW POTENTIAL FOR ABUSE AND SIDE EFFECTS” (Nektar Therapeutics, priority 2010, published 2013).

Experiments:
[1] = tested on: mice; experiment: Oral dose giving maximal analgesia; assay type: in vivo
[2] = tested on: Male CD-1 mice; experiment: Assessment of CNS side effects in mice (Straub tail, muscle rigidity, pinna reflex); details: for Loss Pinna, number of animals responding (N=2) / Muscle Rigidity, number of animals responding (N=2) / Straub Tail Effect, number of animals responding (N=2): oral
Source text: The objective of this study was to provide an approximation of the side effect profile of various oligomeric conjugates for comparison to the parent compounds by measuring various gross behavioral and physiological signs following administration of compound.
Additional evaluations included muscle rigidity and pinna reflex.
Male CD-1 mice from Charles River Laboratories, Raleigh, N.C., weighing from 16-18 grams were maintained on a regular light/dark cycle (lights on 0600-1800) with ad libitum food and water for 1 week before commencement of testing. N=2 per treatment condition, i.e., separate mice for each dose of each test article, injection was performed via a 25-gauge ⅝-inch needle on a 1-mL tuberculin syringe for the s.c. route and a 22-gauge stainless steel mouse feeding tube for the p.o. route (Becton, Dickinson & Co., Franklin Lakes, N.J.). Each treatment condition was divided about evenly between two observers. […] Test article was administered (s.c. or p.o., and the mouse was placed immediately in the observation chamber). One-half, 1, 2, and 3 hours later, the animal was observed undisturbed for gross signs such as locomotor ataxia, tremor, hyperactivity, hypoactivity, convulsions, hindlimb splay, and Straub tail, and then removed and assessed for muscle tone (normal, rigid, flaccid), pinna reflex (presence or absence), righting reflex (intact or lost), and placing (whether or not the forepaws are extended when the mouse is placed near a surface).
Each of the tables show the number of animals responding at each dose, where N=2. […] A bolded value indicates the lowest dose at which a response was detected.

[3] = tested on: squirrel monkeys; experiment: Monkey self-administration model of addictive potential
Source text: Dose-related effects of the test articles were examined, using two or more doses of each drug in 3-4 subjects in a double alternation schedule in which each unit dose (or vehicle) was used in two consecutive sessions before a change in unit dose.
Addictive potential of opioid compounds and opioid conjugates of the invention may be assessed through the use of squirrel monkey models as known in the art.
Under the double alternation schedule, each unit dose (or vehicle) was available for intravenous self-administration for two consecutive sessions before the unit dose was changed. In this way, it was possible to establish the function relating unit dose of intravenous drug to (i) number of injections per session, and/or (ii) the percentage of total responses that occur on the lever leading to self-administration (injection-lever responding, % ILR). Unit doses of drugs ranged from 0.01 to 3.2 mg/kg/injection.

[4] = Pharmacokinetics following intravenous (IV) dosing; assay type: in vivo, Sprague-Dawley rats; details: male, Sprague-Dawley, rat, plasma, iv, 1 mg/kg; for Cmax: read-out: Cmax; for half-life: read-out: T1/2(2); for Vd: read-out: Vss
Source text: (§1) There were 3 rats/group. All animals were food fasted overnight. […] The predose sample was collected from the JVC.
(§2) Following the last collection point, the animals were euthanized.

[5] = target: T1, human kappa opioid receptor (Homo sapiens, UniProt P41145); experiment: cell-based; details: for Emax: maximal response at the highest tested concentration, read-out: % max effect, kappa opioid receptor
T1 construct: expressed in transfected cells; host or cells: CHO cells
T1 sequence (P41145 whole entry): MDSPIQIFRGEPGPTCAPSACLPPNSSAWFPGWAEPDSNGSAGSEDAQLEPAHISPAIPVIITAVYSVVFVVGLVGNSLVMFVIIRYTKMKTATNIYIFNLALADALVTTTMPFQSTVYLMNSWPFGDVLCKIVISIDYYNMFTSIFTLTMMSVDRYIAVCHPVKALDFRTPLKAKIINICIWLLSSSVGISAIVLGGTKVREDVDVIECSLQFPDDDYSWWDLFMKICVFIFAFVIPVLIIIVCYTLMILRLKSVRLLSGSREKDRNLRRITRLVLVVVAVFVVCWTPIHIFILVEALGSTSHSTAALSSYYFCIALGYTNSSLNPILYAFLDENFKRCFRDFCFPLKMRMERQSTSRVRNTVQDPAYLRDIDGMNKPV
Description: (§3) Studies were conducted in CHO cells heterologously expressing the cloned human mu, kappa or delta opioid receptors. cAMP was measured using a cAMP HiRange homogenous time-resolved fluorescence assay (HTRF Assay), that is based on a competitive immunoassay principle (Cisbio, Cat.#62AM6PEC).
(§4) Briefly, suspensions of cells expressing either the mu, kappa or delta opioid receptors were prepared in buffer containing 0.5 mM isobutyl-methyl xanthine (IBMX). […] EC50 values were calculated for each compound from a sigmoidal dose-response plot of concentrations versus maximum response. To determine if the compounds behaved as full or partial agonists in the system, the maximal response at the highest tested concentrations of compounds were compared to that produced by a known full agonist.

[6] = target: T2, human mu opioid receptor (Homo sapiens, UniProt P35372); experiment: cell-based; details: for Emax: maximal response at the highest tested concentration, read-out: % max effect, mu opioid receptor; for EC50: read-out: EC50, mu opioid receptor
T2 construct: expressed in transfected cells; host or cells: CHO cells
T2 sequence (P35372 whole entry): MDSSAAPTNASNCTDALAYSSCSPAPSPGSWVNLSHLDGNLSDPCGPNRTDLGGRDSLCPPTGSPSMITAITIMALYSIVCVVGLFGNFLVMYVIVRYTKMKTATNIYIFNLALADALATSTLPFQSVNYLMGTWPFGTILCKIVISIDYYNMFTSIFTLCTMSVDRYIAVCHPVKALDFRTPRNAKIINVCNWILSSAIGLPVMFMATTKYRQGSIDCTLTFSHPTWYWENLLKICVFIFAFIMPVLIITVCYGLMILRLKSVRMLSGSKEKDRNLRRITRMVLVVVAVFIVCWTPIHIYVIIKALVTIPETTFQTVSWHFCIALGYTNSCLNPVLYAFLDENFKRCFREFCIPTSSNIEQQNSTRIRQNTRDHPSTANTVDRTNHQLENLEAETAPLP
Description: as §3, §4

[7] = target: T1, human kappa opioid receptor; experiment: biochemical; assay type: binding
Description: (§5) Radioligand displacement was measured using scintillation proximity assays (SPA).
(§6) Briefly, serial dilutions of the test compounds were placed in a 96-well plate to which were added SPA beads, membrane and radioligand. The assay conditions for each opioid receptor subtype are described in Table 10 below. The plates were incubated for 8 hours-overnight at room temperature, spun at 1000 rpm to pellet the SPA beads, and radioactivity was measured using the TopCount® microplate Scintillation counter. Specific binding at each concentration of test compound was calculated by subtracting the non-specific binding measured in the presence of excess cold ligand. IC50 values were obtained by non-linear regression of specific binding versus concentration curves and Ki values were calculated using Kd values that were experimentally pre-determined for each lot of membrane preparations.

[8] = target: T2, human mu opioid receptor; experiment: biochemical; assay type: binding; details: CHO-K1 membranes, [3H]DAMGO 6 nM; read-out: Ki, Mu opioid receptor
Description: as §5, §6

[9] = Pharmacokinetics following oral (PO) dosing; assay type: in vivo, Sprague-Dawley rats; details: male, Sprague-Dawley, rat, plasma, po, 5 mg/kg
Source text: as §1, §2

## CN1CC[C@]23c4c5ccc(O)c4O[C@H]2[C@@H](O)C=C[C@H]3[C@H]1C5 [Morphine, morphine, reference compound]
[1]
  oral dose at which maximal analgesia was obtained: 20 mg/kg
[2]; oral doses up to 100 mg/kg
  mice showing the straub tail response: 100%
[2]; 1 mg/kg
  Loss Pinna, number of animals responding (N=2): 0
  Muscle Rigidity, number of animals responding (N=2): 0
  Straub Tail Effect, number of animals responding (N=2): 0
[2]; 3 mg/kg
  Loss Pinna, number of animals responding (N=2): 2
  Muscle Rigidity, number of animals responding (N=2): 0
  Straub Tail Effect, number of animals responding (N=2): 2
[2]; 10 mg/kg
  Loss Pinna, number of animals responding (N=2): 1
  Muscle Rigidity, number of animals responding (N=2): 1
  Straub Tail Effect, number of animals responding (N=2): 2
[2]; 30 mg/kg
  Loss Pinna, number of animals responding (N=2): 2
  Muscle Rigidity, number of animals responding (N=2): 2
  Straub Tail Effect, number of animals responding (N=2): 2
[2]; 100 mg/kg
  Loss Pinna, number of animals responding (N=2): 2
  Muscle Rigidity, number of animals responding (N=2): 2
  Straub Tail Effect, number of animals responding (N=2): 1
[2]; 300 mg/kg
  Loss Pinna, number of animals responding (N=2): 2
  Muscle Rigidity, number of animals responding (N=2): 2
  Straub Tail Effect, number of animals responding (N=2): 1
[3]; 0.03 mg/kg/injection
  injection lever responses (% ILR): 100%
[3]; 0.1 mg/kg/injection
  subjects showing addictive behavior: 100%

## COCCOC1C=CC2C3Cc4ccc(OC)c5c4C2(CCN3C)C1O5 (stereo not drawn) [α-6-mPEG1-O-codeine]
[4]
  AUC: 258 ng·h/mL
  AUC(0-inf): 262 ng·h/mL
  MRT last: 32.2 min
  clearance: 64.6 ± 8.75 mL/min/kg
  Cmax: 723 ± 31.2 ng/mL
  half-life: 42.1 ± 4.84 min
  Vd: 2.22 ± 0.899 L/kg
[5]
  Emax: 51%
[6]
  Emax: 80%
  EC50: 8.57 µM
[7]
  Ki: 54.7 µM
[8]
  Ki: 1.82 µM

## COCCOCCOC1C=CC2C3Cc4ccc(OC)c5c4C2(CCN3C)C1O5 (stereo not drawn) [α-6-mPEG2-O-codeine]
[4]
  AUC: 242 ng·h/mL
  AUC(0-inf): 243 ng·h/mL
  MRT last: 31.5 min
  clearance: 69 ± 7.57 mL/min/kg
  Cmax: 685 ± 41 ng/mL
  half-life: 35.3 ± 2.78 min
  Vd: 2.25 ± 0.166 L/kg
[5]
  EC50: 40.1 µM
  Emax: 59%
[6]
  Emax: 75%
  EC50: 5.14 µM
[7]
  Ki: 22.6 µM
[8]
  Ki: 1.38 µM
[9]
  AUC: 5.85 ng·h/mL
  AUC(0-inf): 6.98 ng·h/mL
  MRT last: 62 min
  bioavailability: 0.57%
[9]; read-out: Cmax
  Cmax: 3.47 ± 0.606 ng/mL
[9]; read-out: T1/2(2)
  half-life: 97.6 ± 28.4 min
[9]; read-out: Tmax (converted)
  Tmax: 15 min
